Laboratory results as given in patent US20240199702A1, “CELL-PERMEABLE CYCLIC PEPTIDES AND USES THEREOF” (Unnatural Products Inc., priority 2021, published 2024).
Where a SMILES comes first, the peptide text is derived from it. [ ]: non-standard residue; d: D form. The star is where a group is joined. Ala(4-thiazolyl) = N[C@@H](Cc1cscn1)C(=O)O; NMeAla(cPent) = CN[C@@H](CC1CCCC1)C(=O)O; Phe(4-Cl) = N[C@@H](Cc1ccc(Cl)cc1)C(=O)O; Phe(4-F) = N[C@@H](Cc1ccc(F)cc1)C(=O)O; Ala(cPent) = N[C@@H](CC1CCCC1)C(=O)O; Cyclohexanecarbonyl = O=C(C1CCCCC1)*; NMeCba = CN[C@@H](CC1CCC1)C(=O)O; NMeF = CN[C@@H](Cc1ccccc1)C(=O)O; NMeI = CC[C@H](C)[C@H](NC)C(=O)O; Cba = N[C@@H](CC1CCC1)C(=O)O; Nicotinoyl = O=C(c1cccnc1)*; Isovaleryl = CC(C)CC(=O)*; Methoxyacetyl = COCC(=O)*; hSer = N[C@@H](CCO)C(=O)O; NMeA = CN[C@@H](C)C(=O)O; dNMeA = CN[C@H](C)C(=O)O; Bz = O=C(c1ccccc1)*; Nme = COCCNCC(=O)O; X1 = O=C(C(F)F)*; Sar = CNCC(=O)O

What was measured:
Human MDM4 (HDM4) 1-114 = biological target: T1, Human MDM4 (HDM4) 1-114 (Homo sapiens, UniProt O15151); test: Fluorescence Polarization Assay 2 (MDM4/p53 peptide); type: binding; settings: FAM-labeled p53 peptide, 60 minutes
T1 construct: Human MDM4 (HDM4) 1-114
T1 sequence (O15151 1-114): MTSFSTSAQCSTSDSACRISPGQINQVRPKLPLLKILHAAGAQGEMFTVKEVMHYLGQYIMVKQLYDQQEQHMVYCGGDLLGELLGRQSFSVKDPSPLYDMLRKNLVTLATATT
Method: Fluorescence Polarization Assay 2
(§1) Human MDM4 (HDM4) 1-114 (20 μL) and FAM-labeled GGTSFAEYWNLLSP —NH2, 20 nM and 5 nM respectively in 10 mM Tris, 50 mM NaCl, 0.01% Tween20, and 1 mM DTT at pH 7.4 were dispensed into an opaque, black, 384 well plate. Compounds dissolved in DMSO were pin transferred (−100-200 nL) to the 384 well plate containing the MDM4/p53 solution. After incubation for 60 minutes, the fluorescence polarization was read on a Molecular Devices SpectraMax plate reader equipped with a Fluorescein FP cartridge. In addition to probe alone (positive control) and probe/MDM4 (negative control), a titration of linear p53(18-26) was included on every plate as an additional control. IC50 values were fit using either Prism or Collaborative Drug Discovery.

Human MDM2 (HDM2) 1-116 = biological target: T2, Human MDM2 (HDM2) 1-116 (Homo sapiens, UniProt Q00987); test: Fluorescence Polarization Assay 1 (MDM2/p53 peptide); type: binding; settings: FAM-labeled p53 peptide, 60 minutes
T2 construct: Human MDM2 (HDM2) 1-116
T2 sequence (Q00987 1-116): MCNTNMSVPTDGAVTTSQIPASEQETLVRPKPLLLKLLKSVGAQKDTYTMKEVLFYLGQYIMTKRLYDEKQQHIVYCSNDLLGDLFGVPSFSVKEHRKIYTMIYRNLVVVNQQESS
Method: Fluorescence Polarization Assay 1
as §1, with “MDM2 (HDM2) 1-116” for “MDM4 (HDM4) 1-114”, “GGTSFAEYWNLLSP-NH2, 10” for “GGTSFAEYWNLLSP —NH2, 20”, “(˜100-200” for “(−100-200”, “MDM2/p53” for “MDM4/p53”, “probe/MDM2” for “probe/MDM4”

Structure (SMILES) | IC50 (Human MDM4 (HDM4) 1-114) | IC50 (Human MDM2 (HDM2) 1-116)
COCC[C@@H]1NC(=O)[C@H]2CCCN2C(=O)[C@H](Cc2ccccc2)N(C)C(=O)[C@H](Cc2ccc(Cl)cc2)NC(=O)[C@H]([C@@H](C)OC(=O)c2cccnc2)NC(=O)[C@H](Cc2ccc(F)cc2)NC(=O)CN(CCOC)C(=O)[C@@H](C)N(C)C(=O)[C@H](Cc2cscn2)NC(=O)[C@H](C)N(C)C1=O [compound 3] (cyclo([Ala(4-thiazolyl)][dNMeA][Nme][Phe(4-F)]T(Nicotinoyl)[Phe(4-Cl)][NMeF][dP][hSer](Me)[NMeA])) | 50 to 100 nM | < 25 nM
COCC[C@@H]1NC(=O)[C@H]2CCCN2C(=O)[C@H](Cc2ccccc2)N(C)C(=O)[C@H](Cc2ccc(Cl)cc2)NC(=O)[C@H]([C@@H](C)OC(=O)CC(C)C)NC(=O)[C@H](Cc2ccc(F)cc2)NC(=O)CN(CCOC)C(=O)[C@@H](C)N(C)C(=O)[C@H](Cc2cscn2)NC(=O)[C@H](C)N(C)C1=O [compound 5] (cyclo([Ala(4-thiazolyl)][dNMeA][Nme][Phe(4-F)]T(Isovaleryl)[Phe(4-Cl)][NMeF][dP][hSer](Me)[NMeA])) | 50 to 100 nM | 25 to 50 nM
COCC[C@@H]1NC(=O)[C@H]2CCCN2C(=O)[C@H](Cc2ccccc2)N(C)C(=O)[C@H](Cc2ccc(Cl)cc2)NC(=O)[C@H]([C@@H](C)OC(=O)C(F)F)NC(=O)[C@H](Cc2ccc(F)cc2)NC(=O)CN(CCOC)C(=O)[C@@H](C)N(C)C(=O)[C@H](Cc2cscn2)NC(=O)[C@H](C)N(C)C1=O [compound 7] (cyclo([Ala(4-thiazolyl)][dNMeA][Nme][Phe(4-F)]T(X1)[Phe(4-Cl)][NMeF][dP][hSer](Me)[NMeA])) | 50 to 100 nM | 25 to 50 nM
COCC[C@@H]1NC(=O)[C@H]2CCCN2C(=O)[C@H](Cc2ccccc2)N(C)C(=O)[C@H](Cc2ccc(Cl)cc2)NC(=O)[C@H]([C@@H](C)OC(=O)C2CCCCC2)NC(=O)[C@H](Cc2ccc(F)cc2)NC(=O)CN(CCOC)C(=O)[C@@H](C)N(C)C(=O)[C@H](Cc2cscn2)NC(=O)[C@H](C)N(C)C1=O [compound 8] (cyclo([Ala(4-thiazolyl)][dNMeA][Nme][Phe(4-F)]T(Cyclohexanecarbonyl)[Phe(4-Cl)][NMeF][dP][hSer](Me)[NMeA])) | ≥ 100 nM | ≥ 100 nM
COCC[C@@H]1NC(=O)[C@H]2CCCN2C(=O)[C@H](Cc2ccccc2)N(C)C(=O)[C@H](Cc2ccc(Cl)cc2)NC(=O)[C@H](CC2CCC2)N(C)C(=O)[C@H](Cc2ccc(F)cc2)NC(=O)CN(CCOC)C(=O)[C@@H](C)N(C)C(=O)[C@H](Cc2cscn2)NC(=O)[C@H](C)N(C)C1=O [compound 9] (cyclo([Ala(4-thiazolyl)][dNMeA][Nme][Phe(4-F)][NMeCba][Phe(4-Cl)][NMeF][dP][hSer](Me)[NMeA])) | 50 to 100 nM | < 25 nM
COCC[C@@H]1NC(=O)[C@H]2CCCN2C(=O)[C@H](Cc2ccccc2)N(C)C(=O)[C@H](Cc2ccc(Cl)cc2)NC(=O)[C@H](CC2CCCC2)N(C)C(=O)[C@H](Cc2ccc(F)cc2)NC(=O)CN(CCOC)C(=O)[C@@H](C)N(C)C(=O)[C@H](Cc2cscn2)NC(=O)[C@H](C)N(C)C1=O [compound 10] (cyclo([Ala(4-thiazolyl)][dNMeA][Nme][Phe(4-F)][NMeAla(cPent)][Phe(4-Cl)][NMeF][dP][hSer](Me)[NMeA])) | ≥ 100 nM | < 25 nM
COCC[C@@H]1NC(=O)[C@H]2CCCN2C(=O)[C@H](Cc2ccccc2)N(C)C(=O)[C@H](Cc2ccc(Cl)cc2)NC(=O)[C@H](CC2CCCC2)NC(=O)[C@H](Cc2ccc(F)cc2)NC(=O)CN(CCOC)C(=O)[C@@H](C)N(C)C(=O)[C@H](C)N(C)C1=O [compound 15] (cyclo([Ala(cPent)][Phe(4-Cl)][NMeF][dP][hSer](Me)[NMeA][dNMeA][Nme][Phe(4-F)])) | 50 to 100 nM | < 25 nM
CC[C@H](C)[C@H]1C(=O)N[C@@H](Cc2ccc(Cl)cc2)C(=O)N(C)[C@@H](Cc2ccccc2)C(=O)N2CCC[C@@H]2C(=O)N[C@@H](CCOC)C(=O)N(C)[C@@H](C)C(=O)N[C@@H](Cc2cscn2)C(=O)N(C)[C@H](C)C(=O)N(CCOC)CC(=O)N[C@@H](Cc2ccc(F)cc2)C(=O)N1C [compound 17] (cyclo([Ala(4-thiazolyl)][dNMeA][Nme][Phe(4-F)][NMeI][Phe(4-Cl)][NMeF][dP][hSer](Me)[NMeA])) | ≥ 100 nM | < 25 nM

More lines, now with the values ahead:

IC50 (Human MDM4 (HDM4) 1-114) | IC50 (Human MDM2 (HDM2) 1-116) | Structure (SMILES)
25 to 50 nM | < 25 nM | COCC[C@@H]1NC(=O)[C@H]2CCCN2C(=O)[C@H](Cc2ccccc2)N(C)C(=O)[C@H](Cc2ccc(Cl)cc2)NC(=O)[C@H]([C@@H](C)OC(C)=O)NC(=O)[C@H](Cc2ccc(F)cc2)NC(=O)CN(CCOC)C(=O)[C@@H](C)N(C)C(=O)[C@H](Cc2cscn2)NC(=O)[C@H](C)N(C)C1=O [compound 1] (cyclo([Ala(4-thiazolyl)][dNMeA][Nme][Phe(4-F)]T(Ac)[Phe(4-Cl)][NMeF][dP][hSer](Me)[NMeA]))
< 25 nM | < 25 nM | COCC[C@@H]1NC(=O)[C@H]2CCCN2C(=O)[C@H](Cc2ccccc2)N(C)C(=O)[C@H](Cc2ccc(Cl)cc2)NC(=O)[C@H]([C@@H](C)OC(=O)c2ccccc2)NC(=O)[C@H](Cc2ccc(F)cc2)NC(=O)CN(CCOC)C(=O)[C@@H](C)N(C)C(=O)[C@H](Cc2cscn2)NC(=O)[C@H](C)N(C)C1=O [compound 2] (cyclo([Ala(4-thiazolyl)][dNMeA][Nme][Phe(4-F)]T(Bz)[Phe(4-Cl)][NMeF][dP][hSer](Me)[NMeA]))
25 to 50 nM | < 25 nM | COCC[C@@H]1NC(=O)[C@H]2CCCN2C(=O)[C@H](Cc2ccccc2)N(C)C(=O)[C@H](Cc2ccc(Cl)cc2)NC(=O)[C@H]([C@@H](C)OC(=O)COC)NC(=O)[C@H](Cc2ccc(F)cc2)NC(=O)CN(CCOC)C(=O)[C@@H](C)N(C)C(=O)[C@H](Cc2cscn2)NC(=O)[C@H](C)N(C)C1=O [compound 4] (cyclo([Ala(4-thiazolyl)][dNMeA][Nme][Phe(4-F)]T(Methoxyacetyl)[Phe(4-Cl)][NMeF][dP][hSer](Me)[NMeA]))
< 25 nM | < 25 nM | COCC[C@@H]1NC(=O)[C@H]2CCCN2C(=O)[C@H](Cc2ccccc2)N(C)C(=O)[C@H](Cc2ccc(Cl)cc2)NC(=O)[C@H]([C@@H](C)OC)NC(=O)[C@H](Cc2ccc(F)cc2)NC(=O)CN(CCOC)C(=O)[C@@H](C)N(C)C(=O)[C@H](Cc2cscn2)NC(=O)[C@H](C)N(C)C1=O [compound 12] (cyclo([Ala(4-thiazolyl)][dNMeA][Nme][Phe(4-F)]T(Me)[Phe(4-Cl)][NMeF][dP][hSer](Me)[NMeA]))
25 to 50 nM | < 25 nM | COCC[C@@H]1NC(=O)[C@H]2CCCN2C(=O)[C@H](Cc2ccccc2)N(C)C(=O)[C@H](Cc2ccc(Cl)cc2)NC(=O)[C@H](C(C)C)NC(=O)[C@H](Cc2ccc(F)cc2)NC(=O)CN(C)C(=O)[C@@H](C)N(C)C(=O)[C@H](Cc2cscn2)NC(=O)[C@H](C)N(C)C1=O [compound 13] (cyclo([Ala(4-thiazolyl)][dNMeA][Sar][Phe(4-F)]V[Phe(4-Cl)][NMeF][dP][hSer](Me)[NMeA]))
25 to 50 nM | < 25 nM | COCC[C@@H]1NC(=O)[C@H]2CCCN2C(=O)[C@H](Cc2ccccc2)N(C)C(=O)[C@H](Cc2ccc(Cl)cc2)NC(=O)[C@H](CC2CCC2)NC(=O)[C@H](Cc2ccc(F)cc2)NC(=O)CN(CCOC)C(=O)[C@@H](C)N(C)C(=O)[C@H](C)N(C)C1=O [compound 14] (cyclo([Cba][Phe(4-Cl)][NMeF][dP][hSer](Me)[NMeA][dNMeA][Nme][Phe(4-F)]))
25 to 50 nM | < 25 nM | CC[C@H](C)[C@@H]1NC(=O)[C@H](Cc2ccc(F)cc2)NC(=O)CN(CCOC)C(=O)[C@@H](C)N(C)C(=O)[C@H](Cc2cscn2)NC(=O)[C@H](C)N(C)C(=O)[C@H](CCOC)NC(=O)[C@H]2CCCN2C(=O)[C@H](Cc2ccccc2)N(C)C(=O)[C@H](Cc2ccc(Cl)cc2)NC1=O [compound 16] (cyclo([Ala(4-thiazolyl)][dNMeA][Nme][Phe(4-F)]I[Phe(4-Cl)][NMeF][dP][hSer](Me)[NMeA]))
25 to 50 nM | < 25 nM | COCC[C@@H]1NC(=O)[C@H]2CCCN2C(=O)[C@H](Cc2ccccc2)N(C)C(=O)[C@H](Cc2ccc(Cl)cc2)NC(=O)[C@H]([C@@H](C)O)NC(=O)[C@H](Cc2ccc(F)cc2)NC(=O)CN(CCOC)C(=O)[C@@H](C)N(C)C(=O)[C@H](Cc2cscn2)NC(=O)[C@H](C)N(C)C1=O [compound 18] (cyclo([hSer](Me)[NMeA][Ala(4-thiazolyl)][dNMeA][Nme][Phe(4-F)]T[Phe(4-Cl)][NMeF][dP]))
